In the NIST ThermoML archive (doi:10.1021/je049691v):

Test: xn = mol fraction of the nth substance listed
Conditions: Liquid

CO [methanol] + O
Conditions	mass density [kg/m3]
283.15 K, x2 = 0.08	813.74
283.15 K, x2 = 0.1581	827.14
283.15 K, x2 = 0.2401	842.01
283.15 K, x2 = 0.3206	857.15
283.15 K, x2 = 0.3987	872.39
283.15 K, x2 = 0.4799	888.59
283.15 K, x2 = 0.56	905.16
283.15 K, x2 = 0.6407	922.05
283.15 K, x2 = 0.7201	938.63
283.15 K, x2 = 0.8	954.82
283.15 K, x2 = 0.8801	970.45
283.15 K, x2 = 0.9603	988.05
288.15 K, x2 = 0.08	809.22
288.15 K, x2 = 0.1581	822.75
288.15 K, x2 = 0.2401	837.75
288.15 K, x2 = 0.3206	853.02
288.15 K, x2 = 0.3987	868.39
288.15 K, x2 = 0.4799	884.77
288.15 K, x2 = 0.56	901.56
288.15 K, x2 = 0.6407	918.74
288.15 K, x2 = 0.7201	935.71
288.15 K, x2 = 0.8	952.47
288.15 K, x2 = 0.8801	968.91
288.15 K, x2 = 0.9603	987.31
293.15 K, x2 = 0.08	804.67
293.15 K, x2 = 0.1581	818.33
293.15 K, x2 = 0.2401	833.45
293.15 K, x2 = 0.3206	848.84
293.15 K, x2 = 0.3987	864.35
293.15 K, x2 = 0.4799	880.88
293.15 K, x2 = 0.56	897.88
293.15 K, x2 = 0.6407	915.33
293.15 K, x2 = 0.7201	932.67
293.15 K, x2 = 0.8	949.98
293.15 K, x2 = 0.8801	967.17
293.15 K, x2 = 0.9603	986.29
298.15 K, x2 = 0.08	800.1
298.15 K, x2 = 0.1581	813.88
298.15 K, x2 = 0.2401	829.11
298.15 K, x2 = 0.3206	844.62
298.15 K, x2 = 0.3987	860.25
298.15 K, x2 = 0.4799	876.94
298.15 K, x2 = 0.56	894.14
298.15 K, x2 = 0.6407	911.85
298.15 K, x2 = 0.7201	929.54
298.15 K, x2 = 0.8	947.37
298.15 K, x2 = 0.8801	965.23
298.15 K, x2 = 0.9603	985.01
303.15 K, x2 = 0.08	795.52
303.15 K, x2 = 0.1581	809.4
303.15 K, x2 = 0.2401	824.74
303.15 K, x2 = 0.3206	840.35
303.15 K, x2 = 0.3987	856.1
303.15 K, x2 = 0.4799	872.93
303.15 K, x2 = 0.56	890.32
303.15 K, x2 = 0.6407	908.28
303.15 K, x2 = 0.7201	926.31
303.15 K, x2 = 0.8	944.61
303.15 K, x2 = 0.8801	963.12
303.15 K, x2 = 0.9603	983.49
308.15 K, x2 = 0.08	790.9
308.15 K, x2 = 0.1581	804.88
308.15 K, x2 = 0.2401	820.31
308.15 K, x2 = 0.3206	836.03
308.15 K, x2 = 0.3987	851.89
308.15 K, x2 = 0.4799	868.86
308.15 K, x2 = 0.56	886.42
308.15 K, x2 = 0.6407	904.62
308.15 K, x2 = 0.7201	922.97
308.15 K, x2 = 0.8	941.73
308.15 K, x2 = 0.8801	960.83
308.15 K, x2 = 0.9603	981.76
313.15 K, x2 = 0.08	786.24
313.15 K, x2 = 0.1581	800.3
313.15 K, x2 = 0.2401	815.84
313.15 K, x2 = 0.3206	831.64
313.15 K, x2 = 0.3987	847.61
313.15 K, x2 = 0.4799	864.71
313.15 K, x2 = 0.56	882.44
313.15 K, x2 = 0.6407	900.87
313.15 K, x2 = 0.7201	919.53
313.15 K, x2 = 0.8	938.72
313.15 K, x2 = 0.8801	958.38
313.15 K, x2 = 0.9603	979.82
318.15 K, x2 = 0.08	781.54
318.15 K, x2 = 0.1581	795.69
318.15 K, x2 = 0.2401	811.3
318.15 K, x2 = 0.3206	827.2
318.15 K, x2 = 0.3987	843.26
318.15 K, x2 = 0.4799	860.49
318.15 K, x2 = 0.56	878.38
318.15 K, x2 = 0.6407	897.03
318.15 K, x2 = 0.7201	915.98
318.15 K, x2 = 0.8	935.58
318.15 K, x2 = 0.8801	955.76
318.15 K, x2 = 0.9603	977.69
323.15 K, x2 = 0.08	776.8
323.15 K, x2 = 0.1581	791.04
323.15 K, x2 = 0.2401	806.71
323.15 K, x2 = 0.3206	822.69
323.15 K, x2 = 0.3987	838.85
323.15 K, x2 = 0.4799	856.2
323.15 K, x2 = 0.56	874.24
323.15 K, x2 = 0.6407	893.1
323.15 K, x2 = 0.7201	912.32
323.15 K, x2 = 0.8	932.31
323.15 K, x2 = 0.8801	952.99
323.15 K, x2 = 0.9603	975.39
328.15 K, x2 = 0.08	772.01
328.15 K, x2 = 0.1581	786.32
328.15 K, x2 = 0.2401	802.07
328.15 K, x2 = 0.3206	818.11
328.15 K, x2 = 0.3987	834.36
328.15 K, x2 = 0.4799	851.82
328.15 K, x2 = 0.56	870.01
328.15 K, x2 = 0.6407	889.07
328.15 K, x2 = 0.7201	908.56
328.15 K, x2 = 0.8	928.92
328.15 K, x2 = 0.8801	950.06
328.15 K, x2 = 0.9603	972.92
333.15 K, x2 = 0.08	767.16
333.15 K, x2 = 0.1581	781.54
333.15 K, x2 = 0.2401	797.35
333.15 K, x2 = 0.3206	813.44
333.15 K, x2 = 0.3987	829.79
333.15 K, x2 = 0.4799	847.36
333.15 K, x2 = 0.56	865.69
333.15 K, x2 = 0.6407	884.94
333.15 K, x2 = 0.7201	904.69
333.15 K, x2 = 0.8	925.41
333.15 K, x2 = 0.8801	947
333.15 K, x2 = 0.9603	970.28
338.15 K, x2 = 0.08	762.24
338.15 K, x2 = 0.1581	776.67
338.15 K, x2 = 0.2401	792.56
338.15 K, x2 = 0.3206	808.71
338.15 K, x2 = 0.3987	825.13
338.15 K, x2 = 0.4799	842.81
338.15 K, x2 = 0.56	861.28
338.15 K, x2 = 0.6407	880.72
338.15 K, x2 = 0.7201	900.71
338.15 K, x2 = 0.8	921.77
338.15 K, x2 = 0.8801	943.79
338.15 K, x2 = 0.9603	967.5
343.15 K, x2 = 0.08	757.24
343.15 K, x2 = 0.1581	771.74
343.15 K, x2 = 0.2401	787.68
343.15 K, x2 = 0.3206	803.91
343.15 K, x2 = 0.3987	820.39
343.15 K, x2 = 0.4799	838.17
343.15 K, x2 = 0.56	856.77
343.15 K, x2 = 0.6407	876.4
343.15 K, x2 = 0.7201	896.64
343.15 K, x2 = 0.8	918.02
343.15 K, x2 = 0.8801	940.45
343.15 K, x2 = 0.9603	964.57
348.15 K, x2 = 0.08	752.17
348.15 K, x2 = 0.1581	766.72
348.15 K, x2 = 0.2401	782.71
348.15 K, x2 = 0.3206	799
348.15 K, x2 = 0.3987	815.56
348.15 K, x2 = 0.4799	833.44
348.15 K, x2 = 0.56	852.18
348.15 K, x2 = 0.6407	871.97
348.15 K, x2 = 0.7201	892.45
348.15 K, x2 = 0.8	914.14
348.15 K, x2 = 0.8801	936.97
348.15 K, x2 = 0.9603	961.5
353.15 K, x2 = 0.08	747.01
353.15 K, x2 = 0.1581	761.6
353.15 K, x2 = 0.2401	777.65
353.15 K, x2 = 0.3206	794
353.15 K, x2 = 0.3987	810.62
353.15 K, x2 = 0.4799	828.62
353.15 K, x2 = 0.56	847.48
353.15 K, x2 = 0.6407	867.48
353.15 K, x2 = 0.7201	888.15
353.15 K, x2 = 0.8	910.15
353.15 K, x2 = 0.8801	933.37
353.15 K, x2 = 0.9603	958.3
